Here are results for five molecules from paper PMC6591177, “Small Molecule IL-36γ Antagonist as a Novel Therapeutic Approach for Plaque Psoriasis” (Scientific Reports, 2019).

The Ki is a dissociation constant, usually derived from enzyme kinetics or from competition with a known ligand. Read a high Ki as weaker binding. As a reminder, the EC50 is the concentration giving half of the maximal effect.

One data set deals with T1, human IL-36γ (Homo sapiens, UniProt Q9NZH8).
T1 construct: His6-SUMO-human IL-36γ (18–169); His6-SUMO (N, cleaved yes); made in house; host or cells: E. coli BL21 (DE3)
T1 sequence (Q9NZH8 18-169): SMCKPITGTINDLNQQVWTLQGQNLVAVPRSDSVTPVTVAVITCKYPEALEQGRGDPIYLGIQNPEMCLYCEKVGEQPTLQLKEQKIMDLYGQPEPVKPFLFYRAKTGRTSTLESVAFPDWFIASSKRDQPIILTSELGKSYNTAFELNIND
Briefly: Thermal shift assay, human IL-36γ. The class given is binding. The conditions noted are these: 100 μM compound; read-out: increase of melting temperature of human IL-36γ. On the procedure:
(§1) Thermal shift assays[30] were performed on a Roche LightCycler 480 instrument using Sypro Orange Dye (Invitrogen). Reactions consisted of 0.5–2 µM purified recombinant protein in PBS, pH 7.4, a 1/500 dilution of the stock Sypro Orange reagent, and 100 µM test compounds, resulting in a final DMSO concentration of 1%. The samples were heated from 20 °C to 95 °C at a rate of 0.25 °C per second.

In data set [1] the test system is HaCaT cells. Briefly: Cell viability (Cell Titer-Glo) counter screen. The class given is cell-based, human. On the procedure:
The IL-8 release assays were miniaturized for HTS hit follow-up. Frozen aliquots of HaCaT cells were thawed, added to complete media, mixed, spun down, resuspended in fresh media, and dispensed using the Multidrop384 into black, clear-bottom 384 well plates at a final density of 4000 cells/well. After a 24 h recovery period at 37 °C/5% CO2, the cell plates were rinsed twice with 40 μL/well fresh media. The Biomek FX workstation was then used to add 10 μL/well compounds. Cell plates were then returned to 37 °C for 15 min incubation, followed by the addition of 10 μl/well of IL-36γ (40 ng/ml final). After an additional 5 h of incubation at 37 °C, 5 μl/well of cell supernatant was removed with the Biomek FX and transferred to a 384 well Proxy Plate for IL-8 detection using the HTRF kit from Cisbio. For the IL-1β evoked release of IL-8, the same protocol was followed, but with a final concentration of 1 ng/mL IL-1β and an overnight incubation instead of 5 h. Cell viability was assessed using Cell Titer-Glo (Promega) according to the manufacturers’ instructions.
(In general: In ATP-based viability assays light output follows the ATP content of the culture.)

For data set [2], the system named is human IL-36γ evoked CXCL1 release from Human HaCaT cells. Briefly: human IL-36γ evoked CXCL1 release, human HaCaT cells. The class given is cell-based. The conditions noted are these: ± S.D. On the procedure:
(§2) The immortalized human keratinocyte cell line HaCaT and mouse fibroblast NIH-3T3 cell line were maintained in culture in DMEM with 10% fetal bovine serum and 1% penicillin/streptomycin added (Sigma). Cells were seeded in 96-well tissue culture plates (Corning) at 25,000 cells per well and allowed to adhere and recover overnight at 37 °C in an incubator. Cells were rinsed with PBS (Sigma) and treated with cytokines diluted in 200 μL/well of the medium (DMEM with 0.5% FBS and 1% penicillin/streptomycin) as indicated. In inhibition mode, the agonist concentration used was at the EC80 for chemokine production and the cells were pre-treated with inhibitors for 30 min prior to adding the agonist. After 24 h of treatment, supernatants were collected and IL-8 and CXCL1[28] levels were assessed using a custom immunoassay (Meso Scale Discovery). EC50/IC50 values were estimated from a four-parameter logistic fit using Prism software (GraphPad).

The next data set addresses T2, human IL-36α (Homo sapiens, UniProt Q9UHA7).
T2 construct: using recombinant truncated proteins
T2 sequence (Q9UHA7 6-158): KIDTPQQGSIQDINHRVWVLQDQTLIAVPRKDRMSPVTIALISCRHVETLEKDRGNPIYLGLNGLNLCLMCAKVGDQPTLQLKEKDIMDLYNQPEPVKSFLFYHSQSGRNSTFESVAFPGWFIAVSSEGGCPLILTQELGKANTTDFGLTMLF
Briefly: Thermal shift assay / affinity, human IL-36α. The data set is classed as binding. Conditions: thermal shift assay at 100 μM (Supplementary Fig. 4). The method, then:
as §1

The test system of data set [3] is IL-36γ evoked CXCL1 release from Mouse NIH-3T3 cells. As to the kind of experiment: IL-36γ evoked CXCL1 release, mouse NIH-3T3 cells. The data set is classed as cell-based. Conditions: human IL-36γ evoked CXCL1 release, ± S.D. The method, then: as §2
Data set [4] has as its system IL-1β evoked IL-8 release from HaCaT cells. As to the kind of experiment: IL-1β evoked IL-8 release assay in HaCaT cells. The class given is cell-based, human. On the procedure: as §2
(§3) The IL-8 release assays were miniaturized for HTS hit follow-up. Frozen aliquots of HaCaT cells were thawed, added to complete media, mixed, spun down, resuspended in fresh media, and dispensed using the Multidrop384 into black, clear-bottom 384 well plates at a final density of 4000 cells/well. […] Cell viability was assessed using Cell Titer-Glo (Promega) according to the manufacturers’ instructions.

Data set [5] concerns the target T3, human IL-36R/IL-1RAcP extracellular domain (ECD) knob-in-hole Fc (human, UniProt Q9HB29 20-335; Q9NPH3 21-367).
T3 construct: human IL-36 receptor subunit (IL-36R), extracellular domain; human IL-1RAcP co-receptor subunit, extracellular domain; Both proteins were engineered with an Fc 'knob-in-hole' to force heterodimerisation; also called hIL-36R/IL-1RAcP ECD knob-in-hole Fc; human IL-36R/IL-1RAcP ECD Fc heterodimer; not shown: His tag (from the nickel column and the Tb-anti-His detection)
T3 sequence (looked up) 1: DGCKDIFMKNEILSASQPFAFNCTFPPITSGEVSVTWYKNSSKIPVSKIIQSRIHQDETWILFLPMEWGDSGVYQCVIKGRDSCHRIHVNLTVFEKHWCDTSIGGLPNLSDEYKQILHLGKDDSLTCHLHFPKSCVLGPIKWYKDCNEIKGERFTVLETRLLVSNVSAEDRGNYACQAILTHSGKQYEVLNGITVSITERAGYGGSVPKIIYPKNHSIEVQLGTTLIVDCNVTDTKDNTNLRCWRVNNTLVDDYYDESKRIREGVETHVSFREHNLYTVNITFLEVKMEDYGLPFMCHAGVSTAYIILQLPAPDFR
T3 sequence (looked up) 2: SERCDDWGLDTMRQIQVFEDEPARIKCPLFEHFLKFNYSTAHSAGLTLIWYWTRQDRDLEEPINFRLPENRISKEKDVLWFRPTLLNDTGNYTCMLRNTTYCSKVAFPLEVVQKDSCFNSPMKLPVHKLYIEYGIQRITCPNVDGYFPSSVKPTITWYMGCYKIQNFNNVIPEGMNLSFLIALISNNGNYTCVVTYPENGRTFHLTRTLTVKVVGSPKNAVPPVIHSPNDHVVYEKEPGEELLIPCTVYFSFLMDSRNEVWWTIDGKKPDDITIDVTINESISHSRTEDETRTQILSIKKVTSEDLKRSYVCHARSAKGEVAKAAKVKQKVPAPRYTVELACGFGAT
Briefly: AlphaScreen or HTRF; TR-FRET, direct binding: receptor heterodimer 1.5 μg/mL with 6 nM Tb-anti-His antibody, Alexa 488 IL-36γ titrated; 1% BSA in 1X PBS; overnight at 4 °C, read at room temperature; ratio 520 nm/495 nm. Conditions: both partners purified.

For data set [6], the system named is IL-36γ evoked IL-8 release from HaCaT cells. Briefly: IL-36γ evoked IL-8 release assay from HaCaT cells. The conditions noted are these: agonist mode, n = 4. The class given is cell-based, human. The method, then: as §2, §3
In the next data set the target is T4, IL-36 receptor (Homo sapiens, UniProt Q9HB29).
T4 chain: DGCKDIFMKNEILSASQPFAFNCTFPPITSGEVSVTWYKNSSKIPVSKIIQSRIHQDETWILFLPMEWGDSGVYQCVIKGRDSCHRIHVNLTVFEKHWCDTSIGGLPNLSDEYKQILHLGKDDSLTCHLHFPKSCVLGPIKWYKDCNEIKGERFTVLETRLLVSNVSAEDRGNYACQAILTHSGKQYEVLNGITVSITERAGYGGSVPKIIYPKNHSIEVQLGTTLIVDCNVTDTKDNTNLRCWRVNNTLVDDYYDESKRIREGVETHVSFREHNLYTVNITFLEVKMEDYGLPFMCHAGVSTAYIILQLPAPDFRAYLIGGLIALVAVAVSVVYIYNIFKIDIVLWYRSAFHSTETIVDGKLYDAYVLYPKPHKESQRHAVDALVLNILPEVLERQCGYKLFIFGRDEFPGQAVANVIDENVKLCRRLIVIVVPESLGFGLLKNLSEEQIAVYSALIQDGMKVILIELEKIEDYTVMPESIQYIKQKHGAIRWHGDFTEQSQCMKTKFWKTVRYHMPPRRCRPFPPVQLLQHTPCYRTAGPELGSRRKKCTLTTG
Briefly: IL-8 release assay in HaCaT cells.

Data set [7] addresses T3, human IL-36R/IL-1RAcP extracellular …. Briefly: AlphaScreen or HTRF; TR-FRET, competitive mode: unlabeled human IL-36γ or IL-36Ra titrated against 6 nM Alexa 488 human IL-36γ, receptor heterodimer 1.5 μg/mL, 6 nM Tb-anti-His antibody; Ki by the Cheng-Prusoff equation. The conditions noted are these: both partners purified. (In general: Bead proximity is the source of the signal in Alpha formats.)

Data set [8] deals with HaCaT cells. Briefly: mouse IL-36γ induction of CXCL1 release from HaCaT cells. The data set is classed as cell-based, human. Conditions: agonist mode. On the procedure:
as §2

With `COC(c1ccccc1)(c1ccccc1)C(Oc1nc(C)cc(-c2ccc(C)c(N)c2)n1)C(=O)O` (centres unmarked) [Compound A-706], at human IL-36γ, the ΔTm at 100 µM is 5.4 °C. For the same molecule, the cellular toxicity entry in the data set with HaCaT cells [1] was “no activity in the hIL-1β induced IL-8 release assay or cellular toxicity”. Further, the Ki in [2] came out at 121 ± 32 nM; in data set [3], 181 ± 54 nM. Further, the “binding / affinity to human IL-36α” value at human IL-36α is listed as “do not bind”. In data set [4], the “activity in the hIL-1β induced IL-8 release assay” value is listed as “no activity”.

B1: N-terminal labeled Alexa 488 human IL-36γ (ligand, UniProt Q9NZH8 18-169, looked up)
chain: T1 sequence (Q9NZH8 18-169)
modifications: Alexa Fluor 488 (N-hydroxysuccinimidyl ester); called N-terminal labeled
notes: human IL-36γ, residues 18-169; Same protein as m3, with the dye; also called Alexa-488 labeled hIL-36γ; NHS-AlexaFluor-488 conjugated human IL-36γ; not shown: His6, N-terminal, cleaved; SUMO, N-terminal, cleaved
On to B1, for which, in data set [5], the EC50 is 0.3 nM.

B2: human IL-36γ: recombinant human IL-36γ (18–169) cytokine, IL-36R agonist (protein)
chain: T1 sequence (Q9NZH8 18-169)
modifications: left off: His6, N-terminal, cleaved | SUMO, N-terminal, cleaved
notes: recombinant human IL-36γ (18–169) cytokine, IL-36R agonist
With B2, the EC50 in data set [6] was found to be 0.2 ± 0.1 nM.

B3: human IL-36Ra (2–155) (ligand, UniProt Q9UBH0 2-155, looked up)
chain: VLSGALCFRMKDSALKVLYLHNNQLLAGGLHAGKVIKGEEISVVPNRWLDASLSPVILGVQGGSQCLSCGVGQEPTLTLEPVNIMELYLGAKESKSFTFYRRDMGLTSSFESAAYPGWFLCTVPEADQPVRLTQLPENGGWNAPITDFYFQQCD
notes: human IL-36 receptor antagonist (IL-36Ra), residues 2-155; also called hIL-36Ra; recombinant soluble hIL-36Ra; source: E. coli BL21 (DE3), purified (nickel column, ULP1 cleavage, Superdex 75 gel filtration); not shown: His6, N-terminal, cleaved; SUMO, N-terminal, cleaved
On to B3, for which the Ki with IL-36 receptor came out at 0.6 nM; in data set [7], 2 nM.

B4: mouse IL-36γ: mouse IL-36γ cytokine (protein, UniProt Q8R460 13-164, looked up)
Interleukin-36 gamma: GRETPDFGEVFDLDQQVWIFRNQALVTVPRSHRVTPVSVTILPCKYPESLEQDKGIAIYLGIQNPDKCLFCKEVNGHPTLLLKEEKILDLYHHPEPMKPFLFYHTRTGGTSTFESVAFPGHYIASSKTGNPIFLTSKKGEYYNINFNLDIKS
Take B4: the “induction of CXCL1 release from HaCaT cells” value in the data set with HaCaT cells [8] was “cannot induce CXCL1 release”.
